Patent US5023322A, “Analogs of growth hormone releasing factor (GRF) and a method for the preparation thereof” (MTA Kutatas-es Szervezetelemzo Intezete, priority 1988, dated 1991)
No end group written: not given here.

Legend:
growth hormone release [1] = test: plasma GH level in anaesthetized rats after intravenous administration; format: in vivo, Wistar Amsterdam rats; settings: for Plasma GH level: i.v.
Procedure: (§1) The biological effects of the compounds according to the invention were tested under in vitro and in vivo conditions. In both instances the growth hormone release was measured as a function of the concentration of the compound administered. The amount of growth hormone released was detected by radioimmune assay with a reliability limit of 95%. The results obtained were compared to those obtained when administering native hpGRF or hGRF(1-29)--NH2, respectively.
(§2) Mature male Wistar Amsterdam rats, weighing 250-300 g, were anaesthetized intraperitoneally with 60 mg/kg of pentobarbital. The peptides to be tested were dissolved in 0.9% by weight aqueous saline solution, and were administered to the animals 20 minutes after anaesthesy as an intravenous (i.v.), intramuscular (i.m.) or subcutaneous (s.c.) injection. Blood samples were taken from the jugular vein of the animals prior to the administration of the active agent (-1 minute) and 5, 15 and 30 minutes after challenge. The amount of growth hormone released was measured by radioimmune assay.
Therefore, when the compounds were administered intravenously, the percentage increase in activity was calculated by relating the amount of growth hormone released upon administering a compound of the invention to the amount of growth hormone released upon administering hGRF(1-29)--NH2.

growth hormone release [2] = test: plasma GH level in anaesthetized rats after intramuscular administration; format: in vivo, Wistar Amsterdam rats; settings: administered intramuscularly, in the doses tested
Procedure: as §1, §2
(§3) Therefore, in these tests the activity of the compounds according to the invention was characterized by the percentage increase in the plasma growth hormone level related to that originally present in the plasma (basal value).

growth hormone release [3] = test: plasma GH level in anaesthetized rats after subcutaneous administration; format: in vivo, Wistar Amsterdam rats; settings: administered subcutaneously, in the doses tested
Procedure: as §1, §2, §3

[4] = literature; cited from earlier work
milk production = settings: cattle; J. Dairy Science 70, 2511 (1987) and 71, 92 (1988); cited from earlier work

Substance	release of growth hormone (in words) (growth hormone release [1]; administered intravenously)	Plasma GH level (growth hormone release [1]; 0.8 μg/kg, +5 min) [ng/mL]	Plasma GH level (growth hormone release [1]; 0.8 μg/kg, +15 min) [ng/mL]	Plasma GH level (growth hormone release [1]; 0.8 μg/kg, +30 min) [ng/mL]	Plasma GH level (growth hormone release [1]; 0.8 μg/kg, -1 min (before administration)) [ng/mL]	Plasma GH level (growth hormone release [1]; 2 μg/kg, +5 min) [ng/mL]	Plasma GH level (growth hormone release [1]; 2 μg/kg, +15 min) [ng/mL]	Plasma GH level (growth hormone release [1]; 2 μg/kg, +30 min) [ng/mL]	Plasma GH level (growth hormone release [1]; 2 μg/kg, -1 min (before administration)) [ng/mL]	activity on growth hormone release (in words) (growth hormone release [2])	activity on growth hormone release (in words) (growth hormone release [3])	biological activity compared to the native hGRF(1-44)--NH2 (in words) [4]	milk production of cattles, quality and quantity (in words) (milk production)
hGRF(1-29)--NH2 (YADAIFTNSYRKVLGQLSARKLLQDIMSR-NH2; UniProt P01286 32-60, looked up, fragment) [Standard, fragment of the native human peptide amide extending from the N-terminal through residue 29; applied as standard]	stimulated the release of growth hormone	311.00	93.60	48.73	80.46	1061.11	393.13	109.22	125.22	practically inactive	practically inactive	favourable activity	influenced favourably
human GRF(1-44)--NH2 (YADAIFTNSYRKVLGQLSARKLLQDIMSRQQGESNQERGARARL-NH2; UniProt P01286 32-75, looked up) [native human GRF, a peptide amide of 44 residues]													influenced favourably
